According to EP4696691A1, “TRICYCLIC COMPOUND, AND PREPARATION METHOD THEREFOR AND USE THEREOF” (Shanghai Huilun Pharmaceutical Co., Ltd., priority 2023, dated 2024):
Read-outs that look alike come from different tables or passages of the source.

Legend:
[1] = target: T1, IRAK4-HiBiT fusion protein (Homo sapiens, UniProt Q9NWZ3); assay: Detection of HiBiT-IRAK4 proteolysis levels in K562 IRAK4-HiBiT cells (Nano-Glo HiBiT Lytic assay); assay type: cell-based
T1 construct: K562 from ATCC
T1 sequence (Q9NWZ3 1-460): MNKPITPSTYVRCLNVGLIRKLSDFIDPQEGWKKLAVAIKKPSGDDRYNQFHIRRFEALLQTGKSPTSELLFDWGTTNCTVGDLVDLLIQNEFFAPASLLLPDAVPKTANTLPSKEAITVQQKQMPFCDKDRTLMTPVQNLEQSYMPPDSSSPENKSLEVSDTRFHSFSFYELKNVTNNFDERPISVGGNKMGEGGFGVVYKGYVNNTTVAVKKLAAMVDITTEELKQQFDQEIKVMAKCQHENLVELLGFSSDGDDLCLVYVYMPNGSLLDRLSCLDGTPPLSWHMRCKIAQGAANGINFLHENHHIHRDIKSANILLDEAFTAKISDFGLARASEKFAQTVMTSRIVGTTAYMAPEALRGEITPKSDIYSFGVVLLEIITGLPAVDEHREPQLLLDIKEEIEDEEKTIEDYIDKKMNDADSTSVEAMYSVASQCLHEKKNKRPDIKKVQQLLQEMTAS
Protocol: Test Example 1 Detection of HiBiT-IRAK4 proteolysis levels in K562 IRAK4-HiBiT cells co-incubated with compounds of the present application • Reagents, devices, and consumables in experiments: • Nano-Glo Lytic Detection Assay, purchased from Promega; • EnVision, purchased from PerkinElmer; • Name of cell line: K562 IRAK4-HiBiT stable transformation cell strain (capable of stably expressing IRAK4-HiBiT fusion protein), constructed by Shanghai Bioduro Biologics Co., Ltd., where a K562 cell strain was purchased from ATCC. The culture medium is IMDM+10% FBS+1% P/S (volume percentage, where FBS is fetal bovine serum and P/S is Penicillin-Streptomycin, a 1:1 mixture of penicillin and streptomycin antibiotic solution (10,000 units/mL)).
Cell culture: K562 IRAK4-HiBiT cells were incubated at 37°C, and passaged every 2-3 d, with a seeding density of 200,000 cells/mL.
IRAK4-HiBiT proteolysis experiment: • Step 1: Cell seeding and treatment of compound • 1. A 10 mM compound mother liquor was prepared using DMSO, and a compound solution with a working concentration of 1,000 times (the highest working concentration is 10 µM, diluted 3.162 times, with a total of 10 concentration gradients) was prepared using Bravo automatic liquid processing platform. • 2. 40 nL of a compound working solution was transferred to a 384 well plate, and an equal volume of DMSO was added to positive control wells. • 3. 20 µL of a culture solution was added per well and shaken for 10 min. • 4.20 µL of a K562 IRAK4-HiBiT cell suspension was added per well (6,000 cells/well), and an equal volume of culture medium was added to negative control wells. • 5. The well plate was rotated at 1,000 rpm for 1 min. • 6. The cells were incubated in a 5% CO2 incubator at 37°C for 2 h or 6 h. • Step 2: HiBiT Lytic experiment • 1. The well plate was placed at room temperature to equilibrate for 30 min. • 2. 20 µL of Nano-Glo HiBiT Lytic reagent (trade name: Nano-Glo® HiBiT Lytic Detection Reagent) and the well plate was kept in the dark. • 3. The well plate was placed on an orbital shaker at 300 rpm for 5 min. • 4. The cells were incubated at room temperature for 10 min. • 5. The luminous value was read by Envision. • 6. Data was calculated and processed. Degradation degree%=(negative control - experimental well)/(negative control - positive control) * 100%. Using XL-fit software, a degradation curve was obtained by fitting using a 4 Parameter Logistic Model, and the values of Relative DC50 (nM) and Absolute DC50 (nM) were obtained.

[2] = tested on: LPS induced IL-6 release in human PBMC cells; assay: Inhibition of LPS induced IL-6 release in human PBMC cells (IL-6 HTRF assay); assay type: cell-based; settings: 2 h compound pre-incubation, LPS 5 ng/mL for 4 h, IL-6 in supernatant
Protocol: I. Recovery and seeding of PBMC, and treatment of compounds (human PBMC cells were purchased from Oricell, item number: Fpb003F)
• 1. Preparation of compounds Sample dilutions of a series of concentrations were obtained by dilution in DMSO using Bravo, and then 80 nL was transferred into a cell plate using ECHO. The final concentration of DMSO in the cell culture medium is 0.1%. • 2. Frozen cells were quickly thawed in a 37°C water bath and stirred continuously. • 3. 25 mL of fresh preheated culture medium was added into a 50 mL centrifuge tube, and then the cells were added dropwise. Then the cells were centrifuged at 2,000 rpm for 10 min. • 4. […] The total number of cells required was calculated based on cell concentration to perform the assay. 7×10e4 cells were added per well (70 µL). • 6. The cell plate was placed and incubated in a 5% CO2 incubator at 37°C for 2 h.
• 1. LPS: A stock solution (1 mg/mL) was diluted in dH2O, aliquoted, and stored at -80°C. • 2. 8-fold LPS was added per well (10 µl/well) (with a final concentration of 5 ng/mL). The cells were incubated in a 5% CO2 incubator at 37°C for 4 h. • 3. 70 µl of supernatant was collected per well using Bravo, and then IL-6 HTRF assay was performed. The supernatant may be stored at -80°C.
1. Preparation of standards and sample dilutions. 2. 16 µL of each sample was taken using Bravo and added to wells. Then 16 µL of each standard was taken and added to corresponding wells. 3.4 µL of a premixed IL6 antibody working solution was added to each of all wells. 4. The cell plate was sealed and incubated at room temperature for 2 h. 5.

[3] = Pharmacokinetic behavior in mice (plasma concentration by LC-MS/MS); assay type: in vivo; settings: male ICR mice
Protocol: (§1) Three healthy ICR mice (SPF grade, from Beijing Vital River Laboratory Animal Technology Co., Ltd.), male, weighing 18-25 g, were intravenously injected with a compound (1 mg/kg) at a volume of 5 mL/kg. The compound was prepared using 5% DMSO+10% Solutol+85% Saline (w/v), and the animals were not fasted before the experiment.
as §1, with “were intragastrically administered” for “were intravenously injected with”, “compound (5” for “compound (1”, “of 10” for “of 5”
Blood samples (about 0.05 mL each) were collected from the cheeks at 5 min, 15 min, 30 min, 1 h, 2 h, 4 h, 6 h, 8 h, and 24 h after intravenous administration, and at 5 min, 15 min, 30 min, 1 h, 2 h, 4 h, 6 h, 8 h, and 24 h after intragastrical administration, and anticoagulated with heparin sodium. Following collection, the blood samples were placed on ice and the plasma was centrifuged within 1 h (centrifugation conditions: 6,000 g, 3 min, 2 °C to 8°C). The concentration of the compounds in the plasma was determined by liquid chromatography tandem mass spectrometry. The plasma samples were stored in a -80°C freezer before analysis. With plasma concentration data at different time points, pharmacokinetic parameters were calculated by Phoenix WinNonlin8.2.0, and the results are shown in Table 4: Table 4

[4] = 2 h incubation, read-out: Absolute DC50
[5] = 2 h incubation, read-out: Relative DC50
[6] = 6 h incubation, read-out: Absolute DC50
[7] = 6 h incubation, read-out: Relative DC50
[8] = Intragastric administration (5 mg/kg), 5 mg/kg
[9] = Intravenous injection (1 mg/kg), 1 mg/kg

Dmax ([1]; 2 h incubation) [%] | DC50 [1, 4] [nM] | DC50 [1, 5] [nM] | Structure (SMILES) | Dmax ([1]; 6 h incubation) [%] | DC50 [1, 6] [nM] | DC50 [1, 7] [nM] | other results
90 | 39 | 27.8 | CC(C)(O)c1cc2nn([C@H]3CC[C@H](CCN4CCN5c6ccc(C7(C)CCC(=O)NC7=O)cc6OCC5C4)CC3)cc2cc1NC(=O)c1cccc(C(F)(F)F)n1 (stereo partly shown) [Compound 120] |  |  |  | 
87 | 7.2 | 4.28 | [2H]C1(c2ccc3c(c2)OCC2CN(CCC4CCC(n5cc6cc(NC(=O)c7cccc(C(F)(F)F)n7)c(C(C)(C)O)cc6n5)CC4)CCN32)CCC(=O)NC1=O (stereo not shown) [Compound 101] |  |  |  | 
93 | 1.11 | 1.02 | CC(C)(O)c1cc2nn([C@H]3CC[C@H](CCN4CCN5c6ccc(C7CCC(=O)NC7=O)cc6CCC5C4)CC3)cc2cc1NC(=O)c1cccc(C(F)(F)F)n1 (stereo partly shown) [Compound 119] |  |  |  | 
61 | 4.62 | 0.96 | CC(C)(O)c1cc2nn([C@H]3CC[C@H](CCN4CCN5c6ccc(N7CCC(=O)NC7=O)cc6CCC5C4)CC3)cc2cc1NC(=O)c1cccc(C(F)(F)F)n1 (stereo partly shown) [Compound 118] |  |  |  | 
66 | 40.3 | 13.5 | CC(C)(O)c1cc2nn(C3CCN(CCN4CCN5c6ccc(C7CCC(=O)NC7=O)cc6OCC5C4)CC3)cc2cc1NC(=O)c1cccc(C(F)(F)F)n1 (stereo not shown) [Compound 99] |  |  |  | 

Further lines, the compound ahead of its results:

Structure (SMILES) | Dmax ([1]; 2 h incubation) [%] | DC50 [1, 4] [nM] | DC50 [1, 5] [nM] | Dmax ([1]; 6 h incubation) [%] | DC50 [1, 6] [nM] | DC50 [1, 7] [nM] | other results
COc1cc2nn([C@H]3CC[C@H](CCN4CCN5c6ccc(C7CCC(=O)NC7=O)cc6OCC5C4)CC3)cc2cc1C(=O)Nc1cccc(C(F)(F)F)n1 (stereo partly shown) [Compound 95] |  |  |  | 97 | 3.87 | 4.83 | 
CC(C)(O)c1cc2nn([C@H]3CC[C@H](CCN4CCC5(CC4)OCc4cc(C6CCC(=O)NC6=O)ccc45)CC3)cc2cc1NC(=O)c1cccc(C(F)(F)F)n1 (stereo partly shown) [Compound 47] |  |  |  | 93 | 0.65 | 0.54 | IC50 [2]: 0.52 nM
CC(C)Oc1cc2nc([C@H]3CC[C@H](CCN4CCN5c6ccc(C7CCC(=O)NC7=O)cc6OCC5C4)CC3)cn2cc1C(=O)Nc1cnn2cccnc12 (stereo partly shown) [Compound 100] | 89 | 17.6 | 17.6 |  |  |  | IC50 [2]: 0.64 nM
CC(C)(O)c1cc2nn([C@H]3CC[C@H](CCN4CCN5c6ncc(N7CCC(=O)NC7=O)cc6OCC5C4)CC3)cc2cc1NC(=O)c1cccc(C(F)(F)F)n1 (stereo partly shown) [Compound 116] |  |  |  | 83 | 8.37 | 4.48 | 
CC(C)(O)c1cc2nn([C@H]3CC[C@H](CCN4CCN5c6ncc(C7CCC(=O)NC7=O)cc6OCC5C4)CC3)cc2cc1NC(=O)c1cccc(C(F)(F)F)n1 (stereo partly shown) [Compound 2] |  |  |  | 96 | 6.32 | 5.43 | 
CC(C)(O)c1cc2nn([C@H]3CC[C@H](CCN4CCN5c6ccc(C7CCC(=O)NC7=O)cc6OCC5C4)CC3)cc2cc1NC(=O)c1ccc2cc(C#N)cnn12 (stereo partly shown) [Compound 129] |  |  |  | 97 | 4.41 | 4.32 | 
CC(C)(O)c1cc2nn([C@H]3CC[C@H](CCN4CCN5c6ccc(C7(C)CCC(=O)NC7=O)cc6OC[C@H]5C4)CC3)cc2cc1NC(=O)c1cccc(C(F)(F)F)n1 (single isomer, unassigned) [Compound 120-b-1] |  |  |  |  |  |  | AUClast [3, 8]: 16903 ng·h/mL; Cmax [3, 8]: 1457 ng/mL; F% [3, 8]: 44.5%; T1/2 [3, 8]: 5.32 h; AUClast [3, 9]: 7249 ng·h/mL; CL [3, 9]: 2.10 mL/min/kg; Cmax [3, 9]: 888 ng/mL; Vss [3, 9]: 1.19 L/kg
CC(C)(O)c1cc2nn([C@H]3CC[C@H](CCN4CC5(CCN6c7ccc(C8CCC(=O)NC8=O)cc7NC6C5)C4)CC3)cc2cc1NC(=O)c1cccc(C(F)(F)F)n1 (stereo partly shown) [Compound 115] |  |  |  | 77 | 146 | 81.4 | 
CC(C)(O)c1cc2nn([C@H]3CC[C@H](CCN4CCN5c6ccc(C7CCC(=O)NC7=O)cc6OCCC5C4)CC3)cc2cc1NC(=O)c1cccc(C(F)(F)F)n1 (stereo partly shown) [Compound 130] |  |  |  | 97 | 8.13 | 8.51 | 
CC(C)(O)c1cc2nn([C@H]3CC[C@H](CN4CCC5(CC4)OCc4cc(C6CCC(=O)NC6=O)ccc45)CC3)cc2cc1NC(=O)c1cccc(C(F)(F)F)n1 (stereo partly shown) [Compound 114] |  |  |  | 85 | 4.85 | 3.99 | 
CC(C)(O)c1cc2nn([C@H]3CC[C@H](CCN4CCN5c6ccc(C7(C)CCC(=O)NC7=O)cc6OCC5C4)CC3)cc2cc1NC(=O)c1ccc2cc(C#N)cnn12 (stereo partly shown) [Compound 126] |  |  |  | 97 | 10.8 | 12.3 | 
CC(C)(O)c1cc2nn([C@H]3CC[C@H](CCN4CCN5c6ccc(N7CCC(=O)NC7=O)cc6OCC5C4)CC3)cc2cc1NC(=O)c1cccc(C(F)(F)F)n1 (stereo partly shown) [Compound 117] |  |  |  | 89 | 11.7 | 10.3 | 
COc1cc2nn(C3CCN(CCN4CCN5c6ccc(C7CCC(=O)NC7=O)cc6OCC5C4)CC3)cc2cc1NC(=O)c1cccc(C(F)(F)F)n1 (stereo not shown) [Compound 98] |  |  |  | 89 | < 1 | 0.2 | 
COc1cc2nn(C3CCN(CCN4CCC5(CC4)OCc4cc(C6CCC(=O)NC6=O)ccc45)CC3)cc2cc1NC(=O)c1cccc(C(F)(F)F)n1 (stereo not shown) [Compound 97] |  |  |  | 93 | 1.64 | 1.6 | 
